Measurements taken from patent EP0675109A1, “N-SUBSTITUTED INDOLE DERIVATIVE” (TAISHO PHARMACEUTICAL CO. LTD, priority 1992, dated 1994).

Tests used:
[1] = biological target: α1-adrenergic receptor; assay: α1-Adrenergic receptor binding test ([³H] prazosin displacement, rat brain membrane preparation); details: 0.6 nM [³H] prazosin, 25 °C for 30 minutes, read-out: IC₅₀
Protocol: The α1-adrenergic receptor binding reaction was performed in accordance with the method of Greengrass and Bremner [Eur. J. Pharmacol., 55, 323 (1979)].
A rat was decapitated, and the brain was taken out and homogenized with 30 volumes of 50 Mm Tris hydrochloride (Ph 7.4). The homogenate was centrifuged at 1,000 x g for 5 minutes and the supernatant was further centrifuged at 48,000 x g for 20 minutes. The precipitate thus obtained was suspended in 50 mM Tris hydrochloride (pH 7.4) and recentrifuged at 48,000 x g for 20 minutes. The obtained precipitate was suspended in 50 mM Tris hydrochloride (pH 7.4) in such a manner as to give a concentration of 1.0 mg/ml protein. Thus an α1-adrenergic receptor preparation was obtained.
To 1.0 ml portions of this receptor preparation were added 0.6 nM [³H] prazosin and specimens at various concentrations, and the mixture was allowed to react at 25 °C for 30 minutes.
After the completion of the reaction, each reaction mixture was subjected to a rapid filtration through a glass filter (Whatman GF/B) and the filter was washed with 3 ml portions of 50 mM tris hydrochloride (pH 7.4) thrice. The radioactivity on the filter was measured with a liquid scintillation counter.
The difference between the radioactivity in the absence of any specimen and the radioactivity obtained in the presence of 10 µM of prazosin was referred to as the specific binding of the control. The ratio of the radioactivity obtained at the time of adding each specimen to the control radioactivity was determined and plotted against the specimen concentration. Then the fifty percent inhibitory concentration (IC₅₀) of each specimen was calculated by the curve fitting method with the use of a computer.

[2] = tested on: dog (beagle); assay: Depressor activity test (telemetry of blood pressure and cardiac rate in conscious dogs after oral administration); type: in vivo
Protocol: The depressor activity test was performed in accordance with the method described in Journal of Physiology, 448, 307 - 320 (1992).
Under pentobarbital anesthesia, a catheter for detecting and transmitting the blood pressure was embedded in a branch of the femoral artery of a dog (weighing 10 kg, beagle, each group having 4 animals). When the animal restored from the postoperative aggression, a powder of the compound 1 encapsulated in a cellulose capsule (3 mg/kg) was orally administered to the animal, which had been fasted, without anesthesia or restriction.
Via the catheter embedded in the body of the beagle, the cardiac rate was measured from the blood pressure and the blood pressure pulse wave in accordance with the telemetry method. The blood pressure lowering effect attained the maximum level 30 minutes after the administration and the blood pressure was lowered by about 12 mmHg. This depressor activity persisted even 24 hours after the administration.

[3] = tested on: smooth muscle of the beagle prostate gland; assay: Urination disorder-relieving activity test (phenylephrine-induced contraction of isolated prostate smooth muscle, Magnus' method); type: cell-based, dog; details: specimen 10⁻⁸ to 10⁻⁶ M for 15 minutes, against cumulative phenylephrine, calculated from two dose/reaction curves, read-out: IC₅₀
Protocol: The urination disorder-relieving activity test was performed in accordance with the method described in FEDERATION PROCEEDINGS, 45 (11), (1986). Under pentobarbital anesthesia, the prostate gland of a male dog (weighing 7 to 10 kg, beagle, each group having 3 animals) was taken out. Then a preparation of the smooth muscle of the beagle prostate gland thus taken out was prepared in a conventional manner and the isometric tensile strength was measured by Magnus' method. After incubating for 60 to 90 minutes, phenylephrine (10⁻⁷ to 10⁻⁴ M) was accumulatively administered to give a control dose/reaction curve. After washing away the phenylephrine, the preparation was treated with a specimen (10⁻⁸ to 10⁻⁶ M) for 15 minutes. In the presence of the specimen, phenylephrine (10⁻⁷ to 10⁻³ M) was accumulatively administered again and a dose/reaction curve was obtained in the same manner. Based on these two dose/reaction curves, the IC₅₀ of each specimen was calculated.

[4] = 3 mg/kg orally, time after the administration

Structure (SMILES) | IC50 [1] [nM] | potency estimated from few doses [3] [nM] | also measured
CCC(=O)Cn1cc(CCN2CCN(c3ccccc3OC)CC2)c2ccccc21 [compound 1, 3-[2-(4-(2-methoxyphenyl)piperadinyl)ethyl]-1-(2-oxobutyl)indole] | 7.75 | 1.4 | cardiac rate ([2]; 3 mg/kg orally): somewhat lowered; blood pressure was lowered (maximum level) ([2]; 3 mg/kg orally (powder in cellulose capsule), fasted, without anesthesia, 30 minutes after the administration): about 12 mmHg; persistence of depressor activity [2, 4]: ≥ 24 h; time at which the blood pressure lowering effect attained the maximum level [2, 4]: 30 min
CCC(=O)Cn1cc(CCN2CCN(c3cccc(C)c3C)CC2)c2ccccc21 [compound 4] | 3.93 | – | –
CCC(=O)Cn1cc(CCN2CCN(c3ccc(F)cc3)CC2)c2ccccc21 [compound 8] | 5.13 | – | –
CCCC(=O)Cn1cc(CCN2CCN(c3ccccc3OC)CC2)c2ccccc21 [compound 14] | 0.801 | – | –
COc1ccccc1N1CCN(CCc2cn(CC(=O)C(C)C)c3ccccc23)CC1 [compound 15] | 0.679 | – | –
COc1ccccc1N1CCN(CCCNc2cc(=O)n(C)c(=O)n2C)CC1 [urapidil, reference compound] | 741 | 53.7 | –
